Experiments:
[1] = system: Staphylococcus aureus strain 15981; assay: Antimicrobial efficacy test: survival of planktonic S. aureus after short exposure; assay type: cell-based; conditions: 0.1wt-% of CHG, alone or in combination with DYNOL (text summary, matches Table 4)
From the text: The composition described herein can reduce and eliminate Staphylococcus aureus and Pseudomonas aeruginosa. Those of ordinary skill in the art will readily determine when a composition provides antimicrobial activity using assay and bacterial screening methods well known in the art. For example, the compositions can be evaluated utilizing Antimicrobial Efficacy Test described in the Examples Section. Briefly, a bacterial suspension is introduced into a liquid composition. After a sufficient contact time, the sample containing the exposed bacteria is collected, placed in neutralizing broth, a sample is taken and diluted, and plated on growth medium. The plated sample is incubated at an appropriate temperature and humidity for twenty four to forty-eight hours and the number of viable bacterial colonies growing on the plate is counted. Once colonies have been counted the reduction in the number of bacteria caused by the test composition is readily determined. Bacterial reduction is generally reported as log10 reduction determined by the difference between the log10 of the initial inoculum count (i.e. the control) and the log10 of the inoculum count after exposure. […]

[2] = cited from earlier work

Row | SMILES | log10 reduction [1] | solubility in aqueous fluid [2] [g/100 ml]
1 | N=C(NCCCCCCNC(=N)NC(=N)Nc1ccc(Cl)cc1)NC(=N)Nc1ccc(Cl)cc1.O=C(O)[C@H](O)[C@@H](O)[C@H](O)[C@H](O)CO.O=C(O)[C@H](O)[C@@H](O)[C@H](O)[C@H](O)CO [CHG, chlorhexidine digluconate] | 0.32 | –
2 | CC(=O)O.CC(=O)O.NC(=N\CCCCCC/N=C(N)/N=C(\N)Nc1ccc(Cl)cc1)/N=C(\N)Nc1ccc(Cl)cc1 [diacetate] | – | 1.9

From patent US20200323213A1, “Methods of use for compositions comprising biguanide compound and diol surfactant” (3M INNOVATIVE PROPERTIES COMPANY, priority 2014, published 2020)
